We go through 24 compounds from patent publication US20230399312A1, “SUBSTITUTED PYRIMIDINES AND METHODS OF USE” (THERAVANCE BIOPHARMA R&D IP, LLC, priority 2020, published 2023).

In assay [1] the target is T1, recombinant human ALK5 (TGF-βR1) protein (Homo sapiens, UniProt P36897).
T1 construct: purchased Life Technologies PR9075A
T1 sequence (P36897 34-503): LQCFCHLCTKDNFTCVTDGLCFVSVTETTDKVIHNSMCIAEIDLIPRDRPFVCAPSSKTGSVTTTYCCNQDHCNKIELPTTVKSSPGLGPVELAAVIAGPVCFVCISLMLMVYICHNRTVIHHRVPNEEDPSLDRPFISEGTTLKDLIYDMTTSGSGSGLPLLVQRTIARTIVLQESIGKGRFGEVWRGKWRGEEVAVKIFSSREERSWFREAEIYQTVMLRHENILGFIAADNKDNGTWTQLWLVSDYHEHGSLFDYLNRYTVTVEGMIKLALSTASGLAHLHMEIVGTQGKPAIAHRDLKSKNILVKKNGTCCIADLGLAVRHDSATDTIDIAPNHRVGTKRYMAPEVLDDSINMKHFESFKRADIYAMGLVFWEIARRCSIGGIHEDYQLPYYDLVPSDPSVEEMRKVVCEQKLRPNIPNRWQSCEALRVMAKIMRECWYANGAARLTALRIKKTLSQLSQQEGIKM
In words: Biochemical ALK5 (TGF-βR1) assay to measure pKi (LANCE Ultra ULight kinase assay). As to conditions: apparent pKi, converted from pIC50 by Cheng-Prusoff. The gist of the method: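 Read-out was LANCE Ultra TR-FRET with a europium anti-phospho-Topo IIα Thr1342 antibody after EDTA quench. Kinase reaction ran 60 min at 37 °C with ATP added from a 125 μM 5× stock, after 60 min compound–enzyme equilibration at room temperature. Values are pKi from Cheng-Prusoff conversion of fitted pIC50.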

The subject of assay [2] is TGF-β-stimulated SMAD3 phosphorylation in BEAS-2B cells. Put plainly: Cellular ALK5 potency assay, inhibition of TGF-β stimulated pSMAD3 formation in BEAS-2B cells. Particulars: Homo sapiens, pSMAD3, TGF-β 10 ng/mL, read-out: BEAS2B pIC50 (converted). The format is cell-based. The gist of the method: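 Cells were seeded overnight, rinsed into HEPES/BSA-supplemented HBSS, and dosed with serially diluted compound for 1 h at 37 °C, 5% CO2. TGF-β stimulation (10 ng/mL final) followed for 30 min, then lysis and AlphaLISA pSMAD3 measurement; potency reported as pIC50.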

In the case of `Cc1cccc(-c2nccc(Nc3ccnc(Nc4ccc(N5CCC(CNCc6ccccn6)CC5)cc4)n3)n2)n1` [Compound 219, N4-[2-(6-methyl-2-pyridyl)pyrimidin-4-yl]-N2-[4-[4-[(2-pyridylmethylamino)methyl]-1-piperidyl]phenyl]pyrimidine-2,4-diamine], in assay [1], the Ki is 0.0398 to 0.316 nM. Besides, in assay [2], the IC50 was 25.1 to 158 nM.

In the case of `Cc1cccc(-c2nccc(Nc3ccnc(Nc4ccc(N5CCC(C(=O)OC6CNC6)CC5)cc4)n3)n2)n1` [Compound 220, azetidin-3-yl 1-[4-[[4-[[2-(6-methyl-2-pyridyl)pyrimidin-4-yl]amino]pyrimidin-2-yl]amino]phenyl]piperidine-4-carboxylate], the Ki in assay [1] was 0.0398 to 0.316 nM. Moreover, the IC50 in assay [2] is 25.1 to 158 nM.

Take `Cc1cccc(-c2nccc(Nc3ccnc(Nc4ccc(N5C6CCC5CNC6)cc4)n3)n2)n1` [Compound 221, N2-(4-(3,8-diazabicyclo[3.2.1]octan-8-yl)phenyl)-N4-(2-(6-methylpyridin-2-yl)pyrimidin-4-yl)pyrimidine-2,4-diamine]: the Ki in assay [1] is 0.0398 to 0.316 nM. The IC50 in assay [2] was 25.1 to 158 nM.

As to `Cc1cccc(-c2nc(C)cc(Nc3ccnc(Nc4ccc(N5CCN(C)CC5)cc4)n3)n2)n1` [Compound 222, N4-[6-methyl-2-(6-methyl-2-pyridyl)pyrimidin-4-yl]-N2-[4-(4-methylpiperazin-1-yl)phenyl]pyrimidine-2,4-diamine], the Ki in assay [1] is 0.0398 to 0.316 nM. In addition, the IC50 in assay [2] is 25.1 to 158 nM.

In the case of `Cc1cccc(-c2nccc(Nc3ccnc(Nc4ccc5c(c4)CCN(C(C)C)CC5)n3)n2)n1` [Compound 223, N2-(3-isopropyl-2,3,4,5-tetrahydro-1H-benzo[d]azepin-7-yl)-N4-(2-(6-methylpyridin-2-yl)pyrimidin-4-yl)pyrimidine-2,4-diamine], the Ki in assay [1] was at most 0.0316 nM. For the same compound, the IC50 in assay [2] is 25.1 to 158 nM.

With `Cc1cccc(-c2nccc(Nc3ccnc(Nc4ccc(CN5CCC[C@H](C(=O)O)C5)cc4)n3)n2)n1` [Compound 224, (3S)-1-[[4-[[4-[[2-(6-methyl-2-pyridyl)pyrimidin-4-yl]amino]pyrimidin-2-yl]amino]phenyl]methyl] piperidine-3-carboxylic acid], the Ki in assay [1] is 0.0398 to 0.316 nM. In assay [2], the IC50 is 200 to 1260 nM.

Consider `Cc1cccc(-c2nccc(Nc3ccnc(Nc4ccc5c(c4)NCCC5)n3)n2)n1` [Compound 225, N4-[2-(6-methyl-2-pyridyl)pyrimidin-4-yl]-N2-(1,2,3,4-tetrahydroquinolin-7-yl)pyrimidine-2,4-diamine], for which the Ki in assay [1] was 0.0398 to 0.316 nM. The IC50 in assay [2] was 25.1 to 158 nM.

For the compound `Cc1cccc(-c2nccc(Nc3ccnc(Nc4nc(C)cs4)n3)n2)n1` [Compound 226, N4-[2-(6-methyl-2-pyridyl)pyrimidin-4-yl]-N2-(4-methylthiazol-2-yl)pyrimidine-2,4-diamine], in assay [1], the Ki was 3.98 to 31.6 nM. In addition, the IC50 in assay [2] is 25.1 to 158 nM.

Consider `Cc1cccc(-c2nccc(Nc3ccnc(Nc4cccc(NC(=O)C5CCNC5)c4)n3)n2)n1` (stereo not drawn) [Compound 227, N-[3-[[4-[[2-(6-methyl-2-pyridyl)pyrimidin-4-yl]amino]pyrimidin-2-yl]amino]phenyl]pyrrolidine-3-carboxamide], for which, in assay [1], the Ki was 0.0398 to 0.316 nM. Also, the IC50 in assay [2] was at most 20 nM.

Take `Cc1cccc(-c2nccc(Nc3ccnc(Nc4ccc(NC(=O)N5CCNCC5)cc4)n3)n2)n1` [Compound 228, N-(4-((4-((2-(6-methylpyridin-2-yl)pyrimidin-4-yl)amino)pyrimidin-2-yl)amino)phenyl)piperazine-1-carboxamide]: the Ki in assay [1] was 0.0398 to 0.316 nM. Further, the IC50 in assay [2] was 25.1 to 158 nM.

Turning to `Cc1cccc(-c2nccc(Nc3ccnc(Nc4ccc(NS(=O)(=O)C5CCNCC5)cc4)n3)n2)n1` [Compound 229, N-[4-[[4-[[2-(6-methyl-2-pyridyl)pyrimidin-4-yl]amino]pyrimidin-2-yl]amino]phenyl]piperidine-4-sulfonamide], the Ki in assay [1] is 0.0398 to 0.316 nM. In assay [2], the IC50 is 25.1 to 158 nM.

`Cc1cccc(-c2nccc(Nc3ccnc(Nc4ccc(C5CCNC5)cc4)n3)n2)n1` (stereo not drawn) [Compound 231, N4-[2-(6-methyl-2-pyridyl)pyrimidin-4-yl]-N2-(4-pyrrolidin-3-ylphenyl)pyrimidine-2,4-diamine]: the Ki in assay [1] is 0.0398 to 0.316 nM. In assay [2], the IC50 is 25.1 to 158 nM.

Take `Cc1cccc(-c2nccc(Nc3ccnc(Nc4ccc(-c5cn6c(n5)CNCC6)cc4)n3)n2)n1` [Compound 232, N4-[2-(6-methyl-2-pyridyl)pyrimidin-4-yl]-N2-[4-(5,6,7,8-tetrahydroimidazo[1,2-a]pyrazin-2-yl)phenyl]pyrimidine-2,4-diamine]: the Ki in assay [1] is 0.0398 to 0.316 nM. In assay [2], the IC50 was 25.1 to 158 nM.

Consider `Cc1cccc(-c2nccc(Nc3ccnc(Nc4cccc(N5CCN(C)CC5)c4)n3)n2)n1` [Compound 233, N2-[3-(4-methylpiperazin-1-yl)phenyl]-N4-[2-(6-methyl-2-pyridyl)pyrimidin-4-yl]pyrimidine-2,4-diamine], for which the Ki in assay [1] is 0.0398 to 0.316 nM. Moreover, the IC50 in assay [2] was 25.1 to 158 nM.

In the case of `Cc1cccc(-c2nccc(Nc3ccnc(Nc4ccc(Br)cc4)n3)n2)n1` [Compound 234, N2-(4-bromophenyl)-N4-[2-(6-methyl-2-pyridyl)pyrimidin-4-yl]pyrimidine-2,4-diamine], the Ki in assay [1] is 3.98 to 31.6 nM. Further, the IC50 in assay [2] is 25.1 to 158 nM.

As for `Cc1cccc(-c2nccc(Nc3ccnc(Nc4ccc(N5CCN(CC6CCC(=O)O6)CC5)cc4)n3)n2)n1` (stereo not drawn) [Compound 235, 5-[[4-[4-[[4-[[2-(6-methyl-2-pyridyl)pyrimidin-4-yl]amino]pyrimidin-2-yl]amino]phenyl]piperazin-1-yl]methyl]tetrahydrofuran-2-one], the Ki in assay [1] is 0.0398 to 0.316 nM. Also, in assay [2], the IC50 was at most 20 nM.

On to `COC(=O)C1CN(CCNc2ccc(Nc3nccc(Nc4ccnc(-c5cccc(C)n5)n4)n3)cc2)CCN1C` (stereo not drawn) [Compound 236, methyl 1-methyl-4-[2-[4-[[4-[[2-(6-methyl-2-pyridyl)pyrimidin-4-yl]amino]pyrimidin-2-yl]amino]anilino]ethyl] piperazine-2-carboxylate], for which the Ki in assay [1] was 0.398 to 3.16 nM. Also, the IC50 in assay [2] is 25.1 to 158 nM.

On to `Cc1cccc(-c2nccc(Nc3ccnc(Nc4ccc(CN5CC(C(=O)O)C5)cc4)n3)n2)n1` [Compound 237, 1-[[4-[[4-[[2-(6-methyl-2-pyridyl)pyrimidin-4-yl]amino]pyrimidin-2-yl]amino]phenyl]methyl] azetidine-3-carboxylic acid], for which the Ki in assay [1] is 0.0398 to 0.316 nM. Moreover, the IC50 in assay [2] was 200 to 1260 nM.

With `Cc1cccc(-c2nccc(Nc3ccnc(Nc4ccc(Cl)c(CN5CCN(C)CC5)c4)n3)n2)n1` [Compound 238, N2-[4-chloro-3-[(4-methylpiperazin-1-yl)methyl]phenyl]-N4-[2-(6-methyl-2-pyridyl)pyrimidin-4-yl]pyrimidine-2,4-diamine], the Ki in assay [1] was 0.0398 to 0.316 nM. Further, in assay [2], the IC50 is 25.1 to 158 nM.

As for `Cc1cccc(-c2nccc(Nc3ccnc(Nc4ccc(C(=O)OC5CCNCC5)s4)n3)n2)n1` [Compound 239, 4-piperidyl 5-[[4-[[2-(6-methyl-2-pyridyl)pyrimidin-4-yl]amino]pyrimidin-2-yl]amino]thiophene-2-carboxylate], the Ki in assay [1] was 0.0398 to 0.316 nM. For the same compound, the IC50 in assay [2] is 25.1 to 158 nM.

On to `Cc1cccc(-c2nccc(Nc3ccnc(Nc4ccc(CN5C[C@@H](C)N[C@@H](C)C5)cc4)n3)n2)n1` [Compound 240, N2-[4-[[(3R,5S)-3,5-dimethylpiperazin-1-yl]methyl]phenyl]-N4-[2-(6 methyl-2-pyridyl)pyrimidin-4-yl]pyrimidine-2,4-diamine], for which the Ki in assay [1] was 0.0398 to 0.316 nM. Further, the IC50 in assay [2] is 25.1 to 158 nM.

Regarding `CCOC(=O)CC1CNCCN1c1ccc(Nc2nccc(Nc3ccnc(-c4cccc(C)n4)n3)n2)cc1` (stereo not drawn) [Compound 241, ethyl 2-[1-[4-[[4-[[2-(6-methyl-2-pyridyl)pyrimidin-4-yl]amino]pyrimidin-2-yl]amino]phenyl]piperazin-2-yl]acetate], in assay [1], the Ki was 0.0398 to 0.316 nM. Further, the IC50 in assay [2] was 25.1 to 158 nM.

In the case of `Cc1cccc(-c2nccc(Nc3ccnc(Nc4ccc(CN5CCOCC5)c(F)c4)n3)n2)n1` [Compound 242, N2-[3-fluoro-4-(morpholinomethyl)phenyl]-N4-[2-(6-methyl-2-pyridyl)pyrimidin-4-yl]pyrimidine-2,4-diamine], the Ki in assay [1] is 0.0398 to 0.316 nM. Also, the IC50 in assay [2] was 25.1 to 158 nM.

As for `Cc1cccc(-c2nccc(Nc3ccnc(Nc4ccc(N5CCC(N(C)Cc6ccccn6)CC5)cc4)n3)n2)n1` [Compound 243, N2-[4-[4-[methyl(2-pyridylmethyl)amino]-1-piperidyl]phenyl]-N4-[2-(6-methyl-2-pyridyl)pyrimidin-4-yl]pyrimidine-2,4-diamine], the Ki in assay [1] is 0.0398 to 0.316 nM. Moreover, the IC50 in assay [2] was 25.1 to 158 nM.
